According to ChEMBL document CHEMBL1158151, “Cactus Alkaloids. XXXIX. A Glucotetrahydroiosquinoline From the Mexican Cactus, Pterocereus gaumeri” (1979):
In brackets after ≈: the same amount, converted by molar mass.

Test: Cytotoxicity against human 9KB cells
Assay type: functional
Conditions: read-out: ED50 (the source's name)

## COc1cc2c(c(O)c1OC)CCN(C)C2CO (configuration not stated) [DEGLUCOPTEROCEREINE]
  EC50: 16 µg/mL (≈ 63.2 µM)

## COc1cc2c(c(O[C@@H]3O[C@H](CO)[C@@H](O)[C@H](O)[C@H]3O)c1OC)CCN(C)C2CO (some centres not stated) [PTEROCEREINE]
  EC50: > 100 µg/mL
